What was measured:
Type in all cases: in vivo
Culex pipiens pallens = test: Test Example 6: Culex pipiens pallens larvae in treated water; conditions: 24 h, read-out: pest death rate
Procedure: A formulation of any one of the present compounds (4), (5), (6), (7), (8), (9), (11), (12), (15), (16), (18), (19), (20), (21), (22), and (26) obtained in Formulation Example 5 was diluted with water to prepare a test solution having 500 ppm of the active ingredient.
To 100 mL of ion-exchanged water, 0.7 ml of the test solution was added (active ingredient concentration: 3.5 ppm). Into the solution, 20 last-instar larvae of Culex pipiens pallens were released. After 1 day, the number of surviving or dead Culex pipiens pallens was counted and the death rate of the pest was calculated.

Musca domestica = test: Test Example 4: filter paper with sucrose bait, Musca domestica; conditions: 24 h, read-out: pest death rate
Procedure: A formulation of any one of the present compounds (1), (4), (6), (7), (9), (10), (11), (12), (13), (15), (16), (17), (18), (19), (20), (21), (22), (24), (25) and (26) obtained in Formulation Example 5 was diluted with water to prepare a test solution having 500 ppm of the active ingredient.
(§1) A filter paper having a diameter of 5.5 cm was spread on the bottom of a polyethylene cup having a diameter of 5.5 cm and 0.7 ml of the test solution was added dropwise onto the filter paper. As a bait, 30 mg of sucrose was uniformly placed on the filter paper. Into the polyethylene cup, 10 female imagoes of Musca domestica were released and the cup was sealed with a lid. After 24 hours, the number of surviving or dead Musca domestica was counted and the death rate of the pest was calculated.

Blattalla germanica = test: Test Example 5: filter paper with sucrose bait, Blattalla germanica; conditions: 144 h; 500 ppm active ingredient, 0.7 ml on filter paper; 2 male imagoes of Blattalla germanica; after 6 days; read-out: pest death rate
Procedure: A formulation of any one of the present compounds (4), (5), (6), (8), (12), (15), (16), (18), (22), (23) and (24) obtained in Formulation Example 5 was diluted with water to prepare a test solution having 500 ppm of the active ingredient.
as §1, with “2 male” for “10 female”, “Blattalla germanica” for “Musca domestica”, “6 days,” for “24 hours,”

Compound | pest or weed control at 3.5 ppm (Culex pipiens pallens) [%] | pest or weed control at 500 ppm (Musca domestica) [%] | pest or weed control at 500 ppm (Blattalla germanica) [%]
N#CC(C1CCSC1)S(=O)(=O)CCC(F)(F)F (centres unmarked) [present compound (7), 2-(tetrahydrothiophen-3-yl)-2-(3,3,3-trifluoropropylsulfonyl)acetonitrile] | ≥ 95 | ≥ 90 | 
CCOC(=O)N1CCC(C(C#N)S(=O)(=O)CCC(F)(F)F)CC1 (centres unmarked) [present compound (1), 2-[N-(ethoxycarbonyl)piperidin-4-yl]-2-(3,3,3-trifluoropropylsulfonyl)acetonitrile] |  | ≥ 90 | 
N#CC(CCC(F)(F)F)S(=O)(=O)CC1CCCO1 (centres unmarked) [present compound (17), 5,5,5-trifluoro-2-(tetrahydrofuran-2-ylmethanesulfonyl)pentanenitrile] |  | ≥ 90 | 
C#CCC1CCC(CSCCC(F)(F)F)O1 (single isomer, unassigned) [present compound (23), 2-(prop-2-ynyl)-5-(3,3,3-trifluoropropylthiomethyl)tetrahydrofuran] |  |  | 100
N#CC(CCC(F)(F)C(F)(F)F)S(=O)(=O)CCC1OCCO1 (centres unmarked) [present compound (21), 5,5,6,6,6,-pentafluoro-2-[2-(1,3-dioxolan-2-yl)ethanesulfonyl]pentanenitrile] | ≥ 95 | ≥ 90 | 
N#CC(CCCC(F)(F)C(F)(F)F)S(=O)(=O)CC1CCCO1 (centres unmarked) [present compound (19), 6,6,7,7,7-pentafluoro-2-(tetrahydrofuran-2-ylmethanesulfonyl)heptanenitrile] | ≥ 95 | ≥ 90 | 
N#CC(CC1CCC(=O)O1)S(=O)(=O)CCC(F)(F)F (centres unmarked) [present compound (13), 3-(2-oxotetrahydrofuran-5-yl)-2-(3,3,3-trifluoropropylsulfonyl)propionitrile] |  | ≥ 90 | 
N#CC(C1CCS(=O)(=O)CC1)S(=O)(=O)CCC(F)(F)F (centres unmarked) [present compound (6), 2-(1,1-dioxo-1λ^4-tetrahydrothiopyran-4-yl)-2-(3,3,3-trifluoropropylsulfonyl)acetonitrile] | ≥ 95 | ≥ 90 | 100
C#CCC1CCC(CS(=O)(=O)CCC(F)(F)F)O1 (single isomer, unassigned) [present compound (24), 2-(prop-2-ynyl)-5-(3,3,3-trifluoropropanesulfonylmethyl)tetrahydrofuran] |  | ≥ 90 | 100
COC(=O)N1CCC(C(C#N)S(=O)(=O)CCC(F)(F)C(F)(F)F)CC1 (centres unmarked) [present compound (15), 2-[N-(methoxycarbonyl)piperidin-4-yl]-2-(3,3,4,4,4-pentafluorobutylsulfonyl)acetonitrile] | ≥ 95 | ≥ 90 | 100
COC(=O)C(CCC(F)(F)C(F)(F)F)S(=O)(=O)CC1CCCO1 (centres unmarked) [present compound (25), methyl 5,5,6,6,6-pentafluoro-2-(tetrahydrofuran-2-ylmethanesulfonyl)hexanoate] |  | ≥ 90 | 
N#CC(C1CCSCC1)S(=O)(=O)CCC(F)(F)F (centres unmarked) [present compound (4), 2-(tetrahydrothiopyran-4-yl)-2-(3,3,3-trifluoropropylsulfonyl)acetonitrile] | ≥ 95 | ≥ 90 | 100
N#CC(CC1CCOC1)S(=O)(=O)CCC(F)(F)F (centres unmarked) [present compound (11), 3-(tetrahydrofuran-3-yl)-2-(3,3,3-trifluoropropylsulfonyl)propionitrile] | ≥ 95 | ≥ 90 | 
N#CC(C1CCSCC1)S(=O)(=O)CCC(F)(F)C(F)(F)F (centres unmarked) [present compound (16), 2-(tetrahydrothiopyran-4-yl)-2-(3,3,4,4,4-pentafluorobutylsulfonyl)acetonitrile] | ≥ 95 | ≥ 90 | 100
N#CC(C1CC[S+]([O-])C1)S(=O)(=O)CCC(F)(F)F (centres unmarked) [present compound (8), 2-(1-oxo-1λ^4-tetrahydrothiophen-3-yl)-2-(3,3,3-trifluoropropylsulfonyl)acetonitrile] | ≥ 95 |  | 100
N#CC(CC1CCCO1)S(=O)(=O)CCC(F)(F)F (centres unmarked) [present compound (10), 3-(2-tetrahydrofuran-2-yl)-2-(3,3,3-trifluoropropylsulfonyl)propionitrile] |  | ≥ 90 | 
N#CC(CCC(F)(F)C(F)(F)F)S(=O)(=O)CC1CCCCO1 (single isomer, unassigned) [present compound (22), 5,5,6,6,6-pentafluoro-2-(tetrahydropyran-2-ylmethanesulfonyl)hexanenitrile] | ≥ 95 | ≥ 90 | 100
N#CC(CCC(F)(F)C(F)(F)F)S(=O)(=O)CC1CCCO1 (centres unmarked) [present compound (18), 5,5,6,6,6-pentafluoro-2-(tetrahydrofuran-2-ylmethanesulfonyl)hexanenitrile] | ≥ 95 | ≥ 90 | 100
N#CC(C1CC[S+]([O-])CC1)S(=O)(=O)CCC(F)(F)F (centres unmarked) [present compound (5), 2-(1-oxo-1λ^4-tetrahydrothiopyran-4-yl)-2-(3,3,3-trifluoropropylsulfonyl)acetonitrile] | ≥ 95 |  | 100
N#CC(CC1CCCCO1)S(=O)(=O)CCC(F)(F)F (centres unmarked) [present compound (12), 3-(2-tetrahydropyran-2-yl)-2-(3,3,3-trifluoropropylsulfonyl)propionitrile] | ≥ 95 | ≥ 90 | 100
